Test results published in patent publication US20100099692A1, “HARMFUL ORGANISM CONTROL COMPOSITION” (priority 2007, published 2010).

What was measured:
Bemisia tabaci imagoes [1] = test: Test Example 1: cabbage leaf disc immersion test on Bemisia tabaci imagoes, controlling value after 4 days; assay type: in vivo; details: foliar, 96 h, cabbage leaf disc immersed 30 seconds; for pest or weed control at 400 ppm: compound I alone 400 ppm
Bemisia tabaci imagoes [2] = test: Test Example 2: cabbage leaf disc immersion test on Bemisia tabaci imagoes, controlling value after 2 days; assay type: in vivo; details: cabbage leaf disc immersed 30 seconds

| Structure (SMILES) | pest or weed control at 400 ppm (Bemisia tabaci imagoes [1]) | also measured |
| --- | --- | --- |
| COC(=O)N(C)N(C)C(=O)c1cc(Br)cc(Br)c1NC(=O)c1cc(Br)nn1-c1ncccc1Cl [compound I-(204)] | 100% |  |
| COC(=O)NNC(=O)c1cc(Cl)cc(C)c1NC(=O)c1cc(C(F)(F)F)nn1-c1ncccc1Cl [compound I-(5)] | 100% |  |
| COC(=O)NN(C)C(=O)c1cc(C#N)cc(C)c1NC(=O)c1cc(Br)nn1-c1ncccc1Cl [compound I-(138)] |  | Pest controlling value (%) (Bemisia tabaci imagoes [2]; compound I-(138) alone 800 ppm): 33% |
| COC(=O)NNC(=O)c1cc(Cl)cc(C)c1NC(=O)c1cc(Br)nn1-c1ncccc1Cl [compound I-(34)] | 100% |  |
| COC(=O)NNC(=O)c1cc(Br)cc(C)c1NC(=O)c1cc(C(F)(F)F)nn1-c1ncccc1Cl [compound I-(74)] | 100% |  |
| COC(=O)NN(C)C(=O)c1cc(Cl)cc(C)c1NC(=O)c1cc(Br)nn1-c1ncccc1Cl [compound I-(115)] | 51% |  |
| CC#CCOc1ncnc(N2CC(C)CC(C)C2)c1F (stereo not shown) [compound X, 4-(2-butynyloxy)-5-fluoro-6-(3,5-dimethylpiperidino)pyrimidine] |  | Pest controlling value (%) (Bemisia tabaci imagoes [2]; compound X alone 2000 ppm): 75%; pest or weed control at 1000 ppm (Bemisia tabaci imagoes [1]; compound X alone 1000 ppm): 23% |
| COC(=O)NNC(=O)c1cc(Br)cc(Br)c1NC(=O)c1cc(Br)nn1-c1ncccc1Cl [compound I-(68)] | 95% |  |
| COC(=O)N(C)N(C)C(=O)c1cc(Cl)cc(C)c1NC(=O)c1cc(Br)nn1-c1ncccc1Cl [compound I-(119)] | 100% |  |
| COC(=O)NNC(=O)c1cc(Cl)cc(Br)c1NC(=O)c1cc(Br)nn1-c1ncccc1Cl [compound I-(70)] | 90% |  |
| COC(=O)N(C)NC(=O)c1cc(Br)cc(Br)c1NC(=O)c1cc(Br)nn1-c1ncccc1Cl [compound I-(213)] | 100% |  |
| COC(=O)NNC(=O)c1cc(C#N)cc(C)c1NC(=O)c1cc(Br)nn1-c1ncccc1Cl [compound I-(117)] | 86% |  |
